From patent publication US7514457B2, “Substituted aryloxymethyl bicyclicmethyl acetamide compounds” (Pfizer Inc., priority 2005, dated 2009)

Target: human VR1 (Homo sapiens, UniProt Q8NER1)
Test: Human VR1 antagonist assay (Ca2+ imaging)
Assay type: cell-based
Settings: Ca2+ imaging in human VR1 expressing cells; agonist stimulation (capsaicin 300 nM or acid pH 5.8) not given
Description: VR1 antagonistic activity can be determined by the Ca^2+ imaging assay using human VR1 highly expressing cells. The cells that highly express human VR1 receptors are obtainable from several different conventional methods. The one standard method is cloning from human Dorsal Root Ganglion (DRG) or kidney according to the methods such as described in the journal article; Nature, 389, pp816-824, 1997. Alternatively VR1 receptors highly expressing human keratinocytes are also known and published in the journal article (Biochemical and Biophysical Research Communications, 291, pp124-129, 2002). […] Furthermore, the method to up regulate human VR1 gene, which is usually a silent gene or don't produce detectable level of VR1 receptors, is also available to obtain propriety cells. Such genetic modification method was described in detail; Nat. Biotechnol., 19, pp440-445, 2001.
The cells that express human VR1 receptors were maintained in culture flask at 37° C. in an environment containing 5% CO2 until use in the assay. The intracellular Ca^2+ imaging assay to determine VR1 antagonistic activities were done by following procedures.
The culture medium was removed from the flask and fura-2/AM fluorescent calcium indicator was added to the flask at a concentration of 5 μM in the medium. The flask was placed in CO2 incubator and incubated for 1 hour. Then the cells expressing the human VR1 receptors were detached from the flask follow by washing with phosphate buffer saline, PBS(−) and re-suspended in assay buffer. The 80 μl of aliquot of cell suspension (3.75×10^5 cells/ml) was added to the assay plate and the cells were spun down by centrifuge (950 rpm, 20° C., 3 minutes).
The capsaicin-induced changes in the intracellular calcium concentration were monitored using FDSS 6000 (Hamamatsu Photonics, Japan), a fluorometric imaging system. The cell suspension in Krebs-Ringer HEPES (KRH) buffer (115 mM NaCl, 5.4 mM KCl, 1 mM MgSO4, 1.8 mM CaCl2, 11 mM D-Glucose, 25 mM HEPES, 0.96 mM Na2HPO4, pH 7.3) were pre-incubated with varying concentrations of the test compounds or KRH buffer (buffer control) for 15 minutes at room temperature under the dark condition. Then capsaicin solution, which gives 300 nM in assay mixture, was automatically added to the assay plate by the FDSS 6000.
The Acid-induced changes in the intracellular calcium concentration were monitored using FDSS 6000 (Hamamatsu Photonics, Japan), a fluorometric imaging system. The cell suspension in resting buffer (HBSS supplemented with 10 mM HEPES, pH 7.4) were pre-incubated with varying concentrations of the test compounds or resting buffer (buffer control) for 15 minutes at room temperature under the dark condition. The cells were automatically added the stimulating solution (HBSS supplemented with MES, final assay buffer pH5.8) by the FDSS 6000.
The monitoring of the changes in the fluorescence signals (λex=340 nm/380 nm, λem=510-520 nm) was initiated at 1 minute prior to the addition of capsaicin solution or acidic buffer and continued for 5 minute.
The compounds of the examples were tested in the Human VR1 antagonist assay described above.

Chain of human VR1 (Q8NER1 whole entry): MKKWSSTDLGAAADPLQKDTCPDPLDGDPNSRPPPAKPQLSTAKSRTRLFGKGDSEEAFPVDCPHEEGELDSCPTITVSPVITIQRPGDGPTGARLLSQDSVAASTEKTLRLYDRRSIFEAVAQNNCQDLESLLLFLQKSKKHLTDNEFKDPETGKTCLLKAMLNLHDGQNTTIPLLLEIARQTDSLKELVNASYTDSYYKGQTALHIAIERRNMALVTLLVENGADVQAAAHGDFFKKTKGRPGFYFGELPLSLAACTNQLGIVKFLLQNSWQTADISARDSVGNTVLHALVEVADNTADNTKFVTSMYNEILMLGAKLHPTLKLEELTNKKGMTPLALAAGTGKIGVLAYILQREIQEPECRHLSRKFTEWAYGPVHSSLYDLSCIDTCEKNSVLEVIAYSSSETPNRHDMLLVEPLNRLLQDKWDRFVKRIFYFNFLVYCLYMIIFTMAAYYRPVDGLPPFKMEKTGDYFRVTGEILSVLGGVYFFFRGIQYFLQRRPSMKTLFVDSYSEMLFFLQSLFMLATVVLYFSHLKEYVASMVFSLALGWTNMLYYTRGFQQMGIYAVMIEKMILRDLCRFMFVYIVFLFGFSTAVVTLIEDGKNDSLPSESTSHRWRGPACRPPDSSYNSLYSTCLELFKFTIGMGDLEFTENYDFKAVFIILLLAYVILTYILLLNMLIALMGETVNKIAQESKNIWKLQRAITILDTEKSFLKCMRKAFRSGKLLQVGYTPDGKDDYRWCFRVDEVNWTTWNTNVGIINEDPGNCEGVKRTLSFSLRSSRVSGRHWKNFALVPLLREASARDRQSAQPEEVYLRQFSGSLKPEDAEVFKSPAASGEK

Structure (SMILES)	IC50 [µM]
CC(C)(C)c1ccc(OCC(=O)NCc2ccc3[nH]c(=O)[nH]c3c2)cc1 [Example 1, 2-(4-tert-Butylphenoxy)-N-[(2-oxo-2,3-dihydro-1H-benzimidazol-5-yl)methyl]acetamide]	0.421
CC(C)(C)c1c(F)cc(OCC(=O)NCc2ccc3[nH]c(=O)[nH]c3c2)cc1F [Example 3, 2-(4-tert-butyl-3,5-difluorophenoxy)-N-[(2-oxo-2,3-dihydro-1H-benzimidazol-5-yl)methyl]acetamide]	0.097
Cn1c(=O)[nH]c2cc(CNC(=O)COc3ccc(C(C)(C)C)cc3)ccc21 [Example 5, 2-(4-tert-butylphenoxy)-N-[(1-methyl-2-oxo-2,3-dihydro-1H-benzimidazol-5-yl)methyl]acetamide]	0.462
Cn1c(=O)[nH]c2ccc(CNC(=O)COc3ccc(C(C)(C)C)c(Cl)c3)cc21 [Example 8, 2-(3-chloro-4-tert-butylphenoxy)-N-[(3-methyl-2-oxo-2,3-dihydro-1H-benzimidazol-5-yl)methyl]acetamide]	0.481
CC(C)(C)c1ccc(OCC(=O)NCc2ccc3c(c2)CC(=O)N3)cc1Cl [Example 9, 2-(3-chloro-4-tert-butylphenoxy)-N-[(2-oxo-2,3-dihydro-1H-indol-5-yl)methyl]acetamide]	0.478
CC(C)(C)c1ccc(OCC(=O)NCc2ccc3[nH]c(=O)oc3c2)cc1Cl [Example 10, 2-(3-chloro-4-tert-butylphenoxy)-N-[(2-oxo-2,3-dihydro-1,3-benzoxazol-6-yl)methyl]acetamide]	0.413
CC(C)(C)c1ccc(OCC(=O)NCc2ccc3[nH]cnc3c2)cc1 [Example 11, 2-(4-tert-butylphenoxy)-N-(1H-benzindazol-5-ylmethyl)acetamide]	0.837
CC(C)(C)c1ccc(OCC(=O)NCc2ccc3[nH]cnc3c2)cc1 [Example 12, N-(1H-benzimidazol-5-ylmethyl)-2-(4-tert-butylphenoxy)acetamide]	0.286
CC(NC(=O)COc1cc(F)c(C(C)(C)C)c(F)c1)c1ccc2[nH]c(=O)[nH]c2c1 (stereo not drawn) [Example 13, 2-(4-tert-Butyl-3,5-difluorophenoxy)-N-[1-(2-oxo-2,3-dihydro-1H-benzimidazol-5-yl)ethyl]acetamide]	0.05

Next, values leading:

IC50 [µM]	Structure (SMILES)
0.25 to 0.35	Oc1cc2c(cc1O)CN(C(=S)NCCc1ccc(Cl)cc1)CCC2 [Capsazepine, reference compound]
0.111	CC(C)(C)c1ccc(OCC(=O)NCc2ccc3[nH]c(=O)[nH]c3c2)cc1F [Example 2, 2-(4-tert-butyl-3-fluorophenoxy)-N-[(2-oxo-2,3-dihydro-1H-benzimidazol-5-yl)methyl]acetamide]
0.086	CC(C)(C)c1ccc(OCC(=O)NCc2ccc3[nH]c(=O)[nH]c3c2)cc1Cl [Example 4, 2-(4-tert-Butyl-3-chlorophenoxy)-N-[(2-oxo-2,3-dihydro-1H-benzimidazol-5-yl)methyl]acetamide]
0.175	Cn1c(=O)[nH]c2cc(CNC(=O)COc3ccc(C(C)(C)C)c(Cl)c3)ccc21 [Example 7, 2-(4-tert-butyl-3-chlorophenoxy)-N-[(1-methyl-2-oxo-2,3-dihydro-1H-benzimidazol-5-yl)methyl]acetamide]
0.031	C[C@@H](NC(=O)COc1cc(F)c(C(C)(C)C)c(F)c1)c1ccc2nn[nH]c2c1 [Example 14, N-[(1R)-1-(1H-1,2,3-Benzotriazol-6-yl)ethyl]-2-(4-tert-butyl-3,5-difluorophenoxy)acetamide]
0.071	CC(NC(=O)COc1cc(F)c(C(C)(C)C)c(F)c1)c1ccc2ncsc2c1 (stereo not drawn) [Example 15, N-[1-(1,3-benzothiazol-6-yl)ethyl]-2-(4-tert-butyl-3,5-difluorophenoxy)acetamide]
